Measurements reported in US8119694B2, “High concentration local anesthetic formulations” (priority 2008, dated 2012).

Assay: Compatibility study of drug at 40% w/w in solvent blends
Format: physicochemical
Conditions: two week samples at accelerated conditions versus initial samples
Experimental: The solubility and compatibility of lidocaine and lidocaine HCl in solvents typically used in topical pharmaceutical products was assessed in order to direct the formulation development efforts.
Initially, the solubility of lidocaine and lidocaine hydrochloride was evaluated in single solvents with varying lipophilicity. […] Based on the single solvent data, a compatibility study was initiated to evaluate the chemical stability of the drug at a concentration of 40% w/w in a variety of solvent blends that would form the base of potential prototype gel or cream formulations.

CCN(CC)CC(=O)Nc1c(C)cccc1C [lidocaine]
chemical compatibility (potency) in solvent blends: absence of a drop in potency
